Experimental data from BindingDB's records for patent US12404261 (Novartis, 2025).

Target: Cyclic GMP-AMP synthase (Homo sapiens, UniProt Q8N884)
Assay: Biochemical Assay
Procedure: The enzyme solution was transferred into the reagent buffer to give a final concentration of 30 nM. […] The reaction plates were then centrifuged at 1000 rpm for 1 minute and incubated at room temperature for 1 h.

Cyclic GMP-AMP synthase, sequence (Q8N884 whole entry): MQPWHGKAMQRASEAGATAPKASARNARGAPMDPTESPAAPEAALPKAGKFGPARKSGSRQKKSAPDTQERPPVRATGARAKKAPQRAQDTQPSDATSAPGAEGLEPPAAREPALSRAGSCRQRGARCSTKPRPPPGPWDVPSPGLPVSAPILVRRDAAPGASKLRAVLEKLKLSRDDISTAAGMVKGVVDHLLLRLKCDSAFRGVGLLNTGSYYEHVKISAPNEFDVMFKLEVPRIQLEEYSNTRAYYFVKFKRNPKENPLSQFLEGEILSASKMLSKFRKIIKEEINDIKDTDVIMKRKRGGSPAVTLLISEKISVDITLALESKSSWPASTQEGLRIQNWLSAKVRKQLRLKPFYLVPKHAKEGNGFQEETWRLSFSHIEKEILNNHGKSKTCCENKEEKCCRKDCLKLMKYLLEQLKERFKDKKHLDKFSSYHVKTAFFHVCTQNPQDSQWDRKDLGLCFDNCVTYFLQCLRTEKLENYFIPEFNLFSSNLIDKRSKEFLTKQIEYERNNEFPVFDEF

Compound | IC50 [µM]
COc1cc2c(-n3ccnc3)c(-c3nnc(C(CN(C)C)OC)[nH]3)n(C)c2c(F)c1Cl (configuration not stated) [US12404261, Example 97] | 0.104
COc1cc2c(-n3ccnc3)c(-c3nnc(C(=O)N(C)C)[nH]3)n(C)c2c(C#N)c1C#N [US12404261, Example 120] | 0.172
COCC(C1=NNC(c2c(-n3ccnc3)c3cc(OC)c(Cl)c(F)c3n2C)N1)N1CCOCC1 (configuration not stated) [US12404261, Example 126] | 0.411

Results, then the compound that gave them:

IC50 [µM] | Compound
0.137 | Cn1c(-c2nnc(C(F)(F)F)[nH]2)c(-c2cn[nH]c2)c2ccc(Cl)c(C#N)c21 [US12404261, Example 27]
0.07 | COc1cc2c(-c3cn[nH]c3)c(-c3nnc(C(CN(C)C)OC)[nH]3)n(C)c2c(F)c1Cl (configuration not stated) [US12404261, Example 75]
0.861 | FC(F)(F)c1nnc(-c2[nH]c3cc(Cl)c(OC4CC4)cc3c2-n2ccnc2)[nH]1 [US12404261, Example 113]
0.067 | Cn1c(-c2nnc(C(F)(F)F)[nH]2)c(-n2ccnc2)c2cc(O)c(Cl)cc21 [US12404261, Example 115]
